From BindingDB's records for doi:10.1016/j.bmcl.2007.03.076 (Tanabe Research Laboratories Usa, 2007)

Biological target: T1, Oxysterols receptor LXR-beta (Homo sapiens, UniProt P55055)
T1 sequence (P55055 whole entry): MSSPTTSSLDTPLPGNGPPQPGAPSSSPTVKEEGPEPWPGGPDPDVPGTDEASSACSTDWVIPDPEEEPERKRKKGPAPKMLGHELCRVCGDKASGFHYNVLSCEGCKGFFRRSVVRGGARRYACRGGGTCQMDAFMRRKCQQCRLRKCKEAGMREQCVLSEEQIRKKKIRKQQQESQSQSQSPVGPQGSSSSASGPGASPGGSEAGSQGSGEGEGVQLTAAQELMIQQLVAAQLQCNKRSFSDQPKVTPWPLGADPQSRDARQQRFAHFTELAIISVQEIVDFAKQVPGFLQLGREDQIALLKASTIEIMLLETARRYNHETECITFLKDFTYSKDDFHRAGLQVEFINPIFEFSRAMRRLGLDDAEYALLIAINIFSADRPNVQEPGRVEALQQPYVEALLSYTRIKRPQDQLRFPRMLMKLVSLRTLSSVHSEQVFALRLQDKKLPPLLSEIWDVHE
Assay: HTRF Cofactor Peptide Recruitment Assay
Conditions: pH 7.5; 22 °C
Procedure: Polyhistidine-tagged human LXR ligand-binding domain was mixed with the test compound, biotin-SRC1 peptide, streptavidin-allophycocyanin, and europium labeled anti-polyhistidine antibody in reaction buffer, and the mixture was incubated in a 384-well assay plate format. Time-resolved fluorescence was measured at 615 and 665 nm on a LJL Analyst plate reader. The ratio of 665/615 was used to calculate EC50 values of test compounds.

CC(C)(C)OC(=O)n1c(-c2ccc3c(c2)CC(NS(=O)(=O)c2ccccc2)C3)cc2ccccc21 (stereo unspecified) [tert-butyl 2-(2-benzenesulfonamido-2,3-dihydro-1H-inden-5-yl)-1H-indole-1-carboxylate]
EC50: 210 nM
